Results taken from paper PMC5797143, “Epigenetic modulation of inflammation and synaptic plasticity promotes resilience against stress in mice” (Nature Communications, 2018).

Tests used:
[1] = test system: MSN-enriched primary neurons and PBMCs; test: MTT assay; assay type: cell-based, mouse
Method: (§1) MTT and LDH release assays were conducted in MSN-enriched primary neurons and in PBMCs[64]. Cellular cytotoxicity was conducted in HepG2 cells using high content screening (HCS) protocols. Briefly, HepG2 cells were plated on 384-well tissue culture treated black walled clear bottomed polystyrene plates and treated with varying concentrations of Mal-gluc or DHCA. The cells were loaded with the relevant dye/antibody for each cell-health marker following incubation, including cell count, markers for nuclear size, DNA structure, cell membrane permeability, mitochondrial mass, mitochondrial membrane potential and cytochrome C release. The plates were then scanned using an automated fluorescent cellular imager ArrayScanr (Thermo Scientific Cellomics).

[2] = test system: MSN-enriched primary neurons and PBMCs; test: LDH release assay; assay type: cell-based, mouse
Method: as §1

[3] = biological target: T1, human Ether-à-go-go-related gene (hERG) (Homo sapiens, UniProt Q12809); test: In vitro cardiotoxicity, hERG inhibition (IonWorks HT, CHO cells); assay type: cell-based; conditions: CHO cells stably transfected with hERG
T1 construct: expressed in transfected cells; host or cells: CHO cells, stably transfected
T1 sequence (Q12809 whole entry): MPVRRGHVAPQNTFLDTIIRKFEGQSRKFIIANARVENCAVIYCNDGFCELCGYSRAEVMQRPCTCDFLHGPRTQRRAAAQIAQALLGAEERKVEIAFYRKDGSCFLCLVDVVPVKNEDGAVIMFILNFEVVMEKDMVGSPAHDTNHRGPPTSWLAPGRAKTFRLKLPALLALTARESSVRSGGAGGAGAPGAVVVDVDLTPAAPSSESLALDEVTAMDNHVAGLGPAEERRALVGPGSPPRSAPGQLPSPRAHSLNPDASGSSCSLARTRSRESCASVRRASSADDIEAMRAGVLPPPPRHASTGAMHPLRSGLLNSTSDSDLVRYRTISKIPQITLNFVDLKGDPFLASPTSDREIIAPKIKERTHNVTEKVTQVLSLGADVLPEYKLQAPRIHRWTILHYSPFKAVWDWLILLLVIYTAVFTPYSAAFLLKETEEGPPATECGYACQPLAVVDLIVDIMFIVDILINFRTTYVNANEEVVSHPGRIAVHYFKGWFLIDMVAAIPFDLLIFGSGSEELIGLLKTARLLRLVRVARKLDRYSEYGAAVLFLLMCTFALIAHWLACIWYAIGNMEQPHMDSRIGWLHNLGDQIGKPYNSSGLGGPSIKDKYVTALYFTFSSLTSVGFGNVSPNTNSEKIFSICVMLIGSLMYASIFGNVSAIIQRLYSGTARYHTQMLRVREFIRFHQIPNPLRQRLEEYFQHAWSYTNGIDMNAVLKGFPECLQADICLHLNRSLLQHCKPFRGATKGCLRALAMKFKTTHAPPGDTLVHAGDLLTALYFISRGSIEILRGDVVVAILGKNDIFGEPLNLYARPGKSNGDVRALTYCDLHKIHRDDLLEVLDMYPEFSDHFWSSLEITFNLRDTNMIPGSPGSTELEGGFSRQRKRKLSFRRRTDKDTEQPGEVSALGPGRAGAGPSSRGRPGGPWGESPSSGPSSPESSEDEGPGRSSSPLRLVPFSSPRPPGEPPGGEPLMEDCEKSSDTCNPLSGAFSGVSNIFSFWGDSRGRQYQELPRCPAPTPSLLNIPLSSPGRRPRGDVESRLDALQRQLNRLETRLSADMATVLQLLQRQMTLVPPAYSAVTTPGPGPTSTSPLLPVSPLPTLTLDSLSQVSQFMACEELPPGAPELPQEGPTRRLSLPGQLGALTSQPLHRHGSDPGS
Method: Cardiotoxicity was assessed using CHO cells stably transfected with the hERG using the IonWorks HT instrument (Molecular Devices Corporation), which automatically performs electrophysiology measurements in 48 single cells simultaneously in a specialized 384-well plate (PatchPlate)[42]. A single-cell suspension was added to the wells of a PatchPlate to form an electrical seal at the bottom and pre-compound currents were recorded. Various concentrations of Mal-gluc or DHCA were added to the cells in four replicates for 5 min and post-compound currents were then recorded. Post-compound currents are then expressed as a percentage of pre-compound currents and plotted against concentration for each compound and IC50 was calculated.

[4] = Plasma stability, mouse plasma; assay type: in vitro ADME; conditions: 37 °C
Method: (§2) Compound stability in mouse and human plasma and in mouse brain homogenate were conducted, [45]. Specifically, Mal-gluc or DHCA was incubated in duplicate with plasma at 37 °C and samples were taken at various time points and mixed with three volumes of ice-cold Stop Solution (methanol containing propranolol, diclofenac, or other internal standard). Samples were centrifuged to remove precipitated protein, and the supernatants were analyzed by LC/MS/MS to quantitate for remaining test compound. Data are converted to percentage remaining by dividing by the time zero concentration value. Data are fit to a first-order decay model to determine half-life. Plasma protein binding were conducted using both mouse and human plasma.

[5] = Plasma stability, human plasma; assay type: in vitro ADME; conditions: 37 °C
Method: as §2

[6] = biological target: T2, 5-HT1A (serotonin receptor) (Homo sapiens, UniProt P08908); test: Radioligand binding assay; conditions: 10 µM; HEK membrane fractions; quadruplicate
T2 construct: purchased NIMH Psychoactive Drug Screening Program (PDSP)
T2 sequence (P08908 whole entry): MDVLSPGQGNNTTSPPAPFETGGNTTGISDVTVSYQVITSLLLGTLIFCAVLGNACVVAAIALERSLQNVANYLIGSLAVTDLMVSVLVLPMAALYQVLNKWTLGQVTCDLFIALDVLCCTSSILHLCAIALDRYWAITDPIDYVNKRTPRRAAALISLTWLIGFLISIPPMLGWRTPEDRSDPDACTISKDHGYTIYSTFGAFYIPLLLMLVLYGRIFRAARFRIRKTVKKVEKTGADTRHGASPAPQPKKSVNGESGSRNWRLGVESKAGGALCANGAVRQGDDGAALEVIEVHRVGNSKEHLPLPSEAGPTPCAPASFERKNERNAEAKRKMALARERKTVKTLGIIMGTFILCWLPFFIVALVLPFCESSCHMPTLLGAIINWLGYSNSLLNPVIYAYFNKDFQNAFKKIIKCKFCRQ
Method: (§3) Radioligand binding assays were performed as previously described. Briefly, crude membrane fractions prepared from a stable HEK cell line expressing recombinant receptors were mixed with a radiolabeled specific ligand and 10 µM of competitor compound (DHCA, Mal-gluc, or non-specific ligand). The percentage of radioligand binding was subsequently measured.

[7] = biological target: T3, Alpha2A (alpha adrenergic receptor) (Homo sapiens, UniProt P08913); test: Radioligand binding assay; conditions: 10 µM; HEK membrane fractions; quadruplicate
T3 construct: purchased NIMH Psychoactive Drug Screening Program (PDSP)
T3 sequence (P08913 whole entry): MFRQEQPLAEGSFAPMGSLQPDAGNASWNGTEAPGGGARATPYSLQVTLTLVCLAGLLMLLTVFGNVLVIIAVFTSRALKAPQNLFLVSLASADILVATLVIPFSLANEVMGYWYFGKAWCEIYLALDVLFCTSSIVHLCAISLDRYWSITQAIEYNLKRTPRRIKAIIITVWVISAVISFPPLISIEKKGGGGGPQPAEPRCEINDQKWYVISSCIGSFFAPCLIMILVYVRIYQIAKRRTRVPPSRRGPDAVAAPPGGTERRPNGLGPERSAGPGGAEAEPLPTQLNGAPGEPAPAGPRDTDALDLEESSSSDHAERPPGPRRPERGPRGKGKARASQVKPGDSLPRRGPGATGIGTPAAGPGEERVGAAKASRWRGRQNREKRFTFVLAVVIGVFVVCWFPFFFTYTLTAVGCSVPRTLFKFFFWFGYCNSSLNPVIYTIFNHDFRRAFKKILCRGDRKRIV
Method: as §3

[8] = test system: BZP RBS (rat brain benzylpiperazine site); test: Radioligand binding assay; conditions: 10 µM; quadruplicate
Method: as §3

D5 (dopamine receptor) = biological target: T4, D5 (dopamine receptor) (Homo sapiens, UniProt P21918); test: Radioligand binding assay; conditions: 10 µM; HEK membrane fractions; quadruplicate
T4 construct: purchased NIMH Psychoactive Drug Screening Program (PDSP)
T4 sequence (P21918 whole entry): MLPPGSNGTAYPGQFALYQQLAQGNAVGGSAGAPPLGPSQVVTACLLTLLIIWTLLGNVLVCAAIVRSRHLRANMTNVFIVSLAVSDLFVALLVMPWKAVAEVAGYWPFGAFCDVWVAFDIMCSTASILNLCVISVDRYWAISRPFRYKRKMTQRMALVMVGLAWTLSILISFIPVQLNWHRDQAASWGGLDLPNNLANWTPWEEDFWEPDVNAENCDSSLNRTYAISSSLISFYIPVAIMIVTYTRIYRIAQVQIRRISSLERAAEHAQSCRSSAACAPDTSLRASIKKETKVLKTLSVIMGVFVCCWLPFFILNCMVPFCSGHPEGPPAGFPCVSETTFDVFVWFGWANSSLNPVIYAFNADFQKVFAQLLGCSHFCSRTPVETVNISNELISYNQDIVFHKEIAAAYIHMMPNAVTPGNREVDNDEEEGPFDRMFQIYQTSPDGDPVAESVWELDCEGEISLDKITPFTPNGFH
Method: as §3

[9] = test system: C57BL/6 mice subjected to RSDS; test: RSDS, prophylactic treatment; assay type: in vivo, mouse; conditions: 5 mg/kg-BW/day DHCA or 500 ng/kg-BW/day Mal-gluc alone prior to RSDS
Method: To test the efficacy of BDPP in promoting resilience in stress-mediated depression, we treated C57BL/6 male mice with BDPP or vehicle for 2 weeks prior to and throughout RSDS and then performed social avoidance/interaction (SI) testing (Fig. 1a).
Based on the dose–response studies, we chose 5 mg/kg-BW/day DHCA and 500 ng/kg-BW/day Mal-gluc for the preclinical studies. We tested the prophylactic effect by treating mice with a mixture of DHCA/Mal-gluc for 2 weeks prior to and throughout RSDS (Fig. 3c). […] Following SI testing, mice were subjected to a sucrose preference test to evaluate the treatment effect on stress-induced anhedonia.
Male C57BL/6 mice (8-week-old) were randomly grouped into two groups: one group received regular drinking water; the other group was treated with BDPP composed of GSPE, RESV and CGJ, delivered through their drinking water, starting 2 weeks prior to RSDS and throughout RSDS and SI testing. The calculated daily intake of GSPE was 200 mg/kg body weight (BW), RESV was 300 mg/kg BW and CGJ was 1 ml/day.
To facilitate the follow-up sucrose preference test, the delivery of the drinking solution was through two 50-ml tubes with sipper top for each cage, starting from the day of initiation of treatment and the two tubes were regularly switched during the treatment. In parallel control studies, mice received similar treatment but were not subjected to RSDS. For therapeutic studies, susceptible mice (SI <0.8) were identified and randomly grouped into two groups either treated with vehicle or DHCA/Mal-gluc for 2 weeks. Mice were subjected to SI, sucrose preference, and splash testing. For testing the therapeutic efficacy of Imipramine, susceptible mice were treated with Imipramine (20 mg/kg-BW/day, i.p.) for 34 days. On day 35, mice were tested for SI 15–20 min after the last injection. […]
All social interaction (SI) tests were performed under red-light conditions. […] Their movements were automatically monitored and recorded (Ethovision 3.0; Noldus Information Technology) for 2.5 min in the absence (target absent phase) of a novel CD-1 mouse and followed by 2.5 min exploratory behavior in the presence of a caged CD-1 mouse (target present phase). SI behavior was then calculated as a ratio of the time spent in the interaction zone with the target present divided by the time spent in the interaction zone with the target absent. […]
Mice were given access to a two-bottle choice of water or 1% sucrose solution and the consumption of each solution was recorded once every 24 h for 48 or 72 h. […] Sucrose preference was calculated as a percentage of sucrose consumption over total liquid consumption. […]

Compound | MTT assay, % of vehicle control [1] [%] | LDH assay, % of vehicle control [2] [%] | IC50 [3] [µM] | half-life ([4]; mouse, plasma) [h] | half-life ([5]; human, plasma) [h] | Binding activity, 5-HT1A (percentage) [6] [%] | Binding activity, Alpha2A (percentage) [7] [%] | Binding activity, BZP RBS (percentage) [8] [%] | Binding activity, D5 (percentage) (D5 (dopamine receptor)) [%] | anhedonia (sucrose preference), single compound treatment [9] | resilience (SI), single compound treatment [9] | Plasma stability, Half-life (mouse plasma) [4] [h] | Plasma stability, Half-life (human plasma) [5] [h]
O=C(O)CCc1ccc(O)c(O)c1 [DHCA, 3(3,4-dihydroxy-phenyl) propionic acid] | 100 | 100 | > 25 | 0.735 | 1.11 | 3.3 | 15.7 | −5.2 | 5.1 | neither treatment significantly promoted resilience (Supplementary Fig. 7a) or alleviate anhedonia | neither treatment significantly promoted resilience | – | –
COc1cc(-c2[o+]c3cc(O)cc(O)c3cc2O[C@@H]2O[C@H](CO)[C@@H](O)[C@H](O)[C@H]2O)cc(OC)c1O [Mal-gluc] | 100 | 100 | > 25 | – | – | 8.6 | 7.3 | 5.4 | −2 | neither treatment significantly promoted resilience (Supplementary Fig. 7a) or alleviate anhedonia | neither treatment significantly promoted resilience | 3.35 | 4.17
